We go through three molecules from US20250163150A1, “COMBINATION THERAPIES COMPRISING A KRAS INHIBITOR FOR THE TREATMENT OF CANCER” (I-Mab Biopharma US Limited, priority 2022, published 2025).

Assay [1] deals with NCI-H358 human NSCLC tumor cells (KRAS G12C). Description: In vitro phagocytosis of NCI-H358 tumor cells by M0 macrophages (IncuCyte pHrodo). The class given is cell-based. The following applies: AMG 510 pre-treatment 0.1, 1 or 10 μm 24 hours, then M0 macrophage 1:1 and 1 μg/ml TJC4 3-6 hours, FIG. 4A-4C. The protocol:
The following experiments were performed to assess the effects of anti-CD47 antibody TJC4 in combination with the KRAS G12C inhibitor AMG-510 on the in vitro phagocytosis of NCI-H358 human NSCLC tumor cells. As discussed in Example 1, NCI-H358 cells bear the KRAS G12C mutation. The in vitro phagocytosis assays were performed by co-culturing M0 macrophage cells with INCUCYTE® PHRODO®-labeled NCI-H358 tumor cells. Briefly, prior to co-culture, NCI-H358 cells were pre-treated with AMG 510 at the concentrations of 0 μm, 0.1 μm, 1 μm, or 10 μm for 24 hours. The NCI-H358 cells were further incubated with M0 macrophage (at a ratio of 1:1) and 1 μg/ml TJC4 for 3-6 hours. The NCI-H358 cells were then subject to INCUCYTE® ZOOM Live-Cell Imaging System analysis, and the percentage of phagocytosed NCI-H358 was calculated.
Synergy of the combination of AMG 510 and TJC4 in inducing phagocytosis was calculated as: […]
An F value≥1.00 indicates a synergistic effect between AMG-510 and TJC4.

The subject of assay [2] is human NCI-H358 non-small cell lung cancer (NSCLC) tumor xenografts (KRAS G12C). As to the kind of experiment: In vivo anti-tumor efficacy in mice bearing NCI-H358 NSCLC tumor xenografts. Also on record: species or system CB17 SCID mice. As to conditions: 1 mg/kg QD (AMG-510 p.o., TJC4 i.p.), tumor size over 15 days, FIG. 1. The protocol: The anti-tumor efficacy of anti-CD47 antibody TJC4 in combination with the KRAS G12C inhibitor AMG-510 was assessed in mice bearing human NCI-H358 non-small cell lung cancer (NSCLC) tumor xenografts. The NCI-H358 cell line, which was established from a chemotherapy-naïve NSCLC tumor, harbors a KRAS G12C mutation. TJC4 is an exemplary anti-CD47 antibody that comprises a VH that comprises SEQ ID NO: 1, a VL that comprises SEQ ID NO: 2, and a human IgG4 Fe region that comprises an S228P substitution (EU numbering). AMG-510 is also known as Sotorasib. KRAS G12C mutations, which are common in NSCLC, lead to constitutive activation of the tumor growth-promoting RAS/MAPK signaling pathway. […]
Each animal's tumor size was measured three times per week for 15 days. Tumor size was calculated as V=0.5L×W^2, where L and W indicate long and short diameters of the tumor, respectively. Anti-tumor efficacy of the drugs was also analyzed by TGI % (percentage of tumor growth inhibition). TGI % was calculated as: […]
where TRTV is treatment group RTV, and CRTV is control group RTV. RTV=VN/V1, where V1 is the mean tumor volume measured on Day 1 of administration, and VN is the mean tumor volume measured on Day N of administration.
The synergy of the combination of TJC4 and AMG-510 was calculated as: […]

For another assay, the target named is KRAS G12D mutant protein (Homo sapiens, UniProt P01116, G12D). As to conditions: Wang et al. (2022) J Med Chem; cited from earlier work.
In assay [3] the test system is LS180 human colon adenocarcinoma cells. Description: Apoptosis of LS180 cells (FITC-Annexin V / PI flow cytometry). The following applies: MRTX1133 100 nM, TJC4 0.5 μg/ml, 24 hours; combination compared to either agent alone, FIG. 6A/6B. The class given is cell-based. On the procedure: LS180 human colon adenocarcinoma cells were incubated with (a) DMSO, (b) the KRAS G12D inhibitor MRTX1133 (100 nM), (c) anti-CD47 antibody TJC4 (0.5 μg/ml), or (d) MRTX1133 (100 nM)+TJC4 (0.5 μg/ml) for 24 hours and then labeled with fluorescein isothiocyanate (FITC)-Annexin V and propidium iodide (PI). Annexin V (or Annexin A5) is a member of the annexin family of intracellular proteins that binds to phosphatidylserine (PS) in a calcium-dependent manner. PS is normally only found on the intracellular leaflet of the plasma membrane in healthy cells, but during early apoptosis, membrane asymmetry is lost, and PS translocates to the external leaflet. FITC-labeled Annexin V can then be used to specifically target and identify apoptotic cells. PI a cell impermeable nucleic acid intercalating dye. Following staining, the cells were analyzed via flow cytometry.
Background: In flow cytometry, cells or beads pass a laser one at a time.

Assay [4] concerns human LS180 colon adenocarcinoma tumor xenografts. As to the kind of experiment: In vivo anti-tumor efficacy in mice bearing LS180 colon adenocarcinoma xenografts (bioluminescence imaging). Also on record: species or system BALB/c nude mice. The following applies: MRTX1133 20 mg/kg, TJC4 1 mg/kg, intraperitoneally twice a week for four weeks, FIG. 7B. The protocol: The anti-tumor efficacy of anti-CD47 antibody TJC4 in combination with the KRAS G12D inhibitor MRTZ1133 was assessed in mice bearing human LS180 colon adenocarcinoma tumor xenografts. Briefly, 5×10^5 LS180 cells were injected into the cecal walls of BALB/c nude mice. Tumors formed and grew stably after 2 weeks. Mice were given one of the following treatments for four weeks: (a) PBS (control); (b) TJC4 (1 mg/kg, intraperitoneally twice a week); (c) MRTX1133 (20 mg/kg, intraperitoneally twice a week); or (d) MRTX1133 (20 mg/kg, intraperitoneally twice a week)+TJC4 (1 mg/kg, intraperitoneally twice a week). Tumor growth was evaluated by Bioluminescence imaging (BLI) every week.

Assay [5] relates to LS180 human colon adenocarcinoma cells (KRAS G12D). As to the kind of experiment: In vitro phagocytosis of LS180 colon cancer cells by macrophages (flow cytometry). The class given is cell-based. As to conditions: MRTX1133 100 nM, TJC4 0.5 μg/ml, 24 hours; co-culture 2 hours; combination compared to either agent alone, FIG. 5B. The protocol: LS180 human colon adenocarcinoma cells, which harbor the KRAS G12D mutation were incubated with (a) DMSO, (b) the KRAS G12D inhibitor MRTX1133 (100 nM), (c) anti-CD47 antibody TJC4 (0.5 μg/ml), or (d) MRTX1133 (100 nM)+TJC4 (0.5 μg/ml) for 24 hours and then labeled with 2.5 μM carboxyfluorescein succinimidyl ester (CFSE) for 10 minutes at 37° C. Macrophage cells, which were obtained by human THP-1 leukemia monocyte cells with lipopolysaccharide (LPS) for 24 hours, were cultured in a serum free medium for 2 hours and then added to 2×10^5 CFSE-labeled LS180 cells. The macrophages and the LS180 cells were co-cultured at 37° C. for 2 hours. Macrophages were then stained with an APC-labeled anti-F4/80 antibody, and CFSE+ F4/80+ cells were detected by flow cytometry (10,000 cells analyzed in each sample). The percentage of macrophage-phagocytosed LS180 cells was calculated by dividing the number of CFSE+ F4/80+ cells (see the top right quadrant, i.e., Q2, of each flow cytometry histogram in FIG. 5A) by the number CFSE+ cells (see the top left and right quadrants, i.e., Q1 and Q2, respectively) of each flow cytometry histogram in FIG. 5A). In other words, macrophage-phagocytosed LS180 cells (%)=[Q2/(Q1+Q2)]×100%.

With `C=CC(=O)N1CCN(c2nc(=O)n(-c3c(C)ccnc3C(C)C)c3nc(-c4c(O)cccc4F)c(F)cc23)[C@@H](C)C1` [AMG-510, 6-Fluoro-7-(2-fluoro-6-hydroxyphenyl)-(1M)-1-[4-methyl-2-(propan-2-yl)pyridin-3-yl]-4-[(2S)-2-methyl-4-(prop-2-enoyl)piperazin-1-yl]pyrido[2,3-d]pyrimidin-2(1H)-one], the “TJC4-mediated phagocytosis of NCI-H358 by macrophages” value in assay [1] was “enhanced”. Further, the “tumor growth inhibition as compared to mice treated with PBS control” value in assay [2] is listed as “did not demonstrate tumor growth inhibition”.

Regarding `C#Cc1c(F)ccc2cc(O)cc(-c3ncc4c(N5CC6CCC(C5)N6)nc(OC[C@@]56CCCN5C[C@H](F)C6)nc4c3F)c12` [MRTX1133], at KRAS G12D mutant protein, the “specificity to the KRAS G12D mutant protein relative to wild-type KRAS” value is reported as “more than 1000 times”. The “apoptosis of LS180 cells” value in assay [3] was “increased”. Further, in assay [4], the “tumor growth (bioluminescence imaging)” value was “inhibited tumor growth”. Besides, the “phagocytosis of LS180 cells by macrophages” value in assay [5] is “increased”.

B1: TJC4: anti-CD47 antibody with VH SEQ ID NO: 1, VL SEQ ID NO: 2 and human IgG4 Fc region comprising S228P substitution (antibody, V domains shown)
VH: EVQLVESGGGLVKPGGSLRLSCAASGLTFERAWMNWVRQAPGKGLEWVGRIKRKTDGETTDYAAPVKGRFSISRDDSKNTLYLQMNSLKTEDTAVYYCAGSNRAFDIWGQGTMVTVSS
VL: DIVMTQSPDSLAVSLGERATINCKSSQSVLYAGNNRNYLAWYQQKPGQPPKLLINQASTRASGVPDRFSGSGSGTEFTLIISSLQAEDVAIYYCQQYYTPPLAFGGGTKLEIK
modifications: human IgG4 Fc with S228P, no entry
Turning to B1, the “tumor growth inhibition as compared to mice treated with PBS control” value in assay [2] was “did not demonstrate tumor growth inhibition”. The “apoptosis of LS180 cells” value in assay [3] is “increased”. In assay [4], the “tumor growth (bioluminescence imaging)” value is on record as “weak inhibitory effect”. The “phagocytosis of LS180 cells by macrophages” value in assay [5] was “increased”.
